From article PMC12154031, “Screening and Validation: AI-Aided Discovery of Dipeptidyl Peptidase-4 Inhibitory Peptides from Hydrolyzed Rice Proteins” (Foods, 2025)
Where two headings read alike, the source gives them in different places. No end group written: not given here.

Experiments:
[1] = target: T1, DPP-4 (Homo sapiens, UniProt P27487); assay: DPP-IV-inhibitory activity, Gly-Pro-pNA substrate; assay type: biochemical; settings: 37 °C, 15 min; for IC50: Tris–HCl 20 mM pH 8.0, substrate Gly-Pro-pNA 1 mM (50 µL), 0.05 mg/mL DPP-4 (10 µL), peptide in ddH2O, dark, absorbance 405 nm, triplicate, four-parameter logistic fit
T1 construct: purchased Adamas (Shanghai Adamas Reagent Co., Ltd., Shanghai, China)
Description: The assay method for measuring the peptide inhibition of DPP-4 was based on the combination of two established protocols: the peptides were dissolved in ddH2O to prepare a gradient of concentrations and the DPP-4 enzyme was diluted in Tris–HCl (20 mM, pH 8.0). In a 96-well plate, 30 µL ddH2O, 10 µL peptide solution, 50 µL substrate (1 mM), and 10 µL DPP-4 enzyme (0.05 mg/mL) were added sequentially. Each peptide concentration was tested in triplicate and incubated at 37 °C in the dark for 15 min, and then 100 µL of 0.1 M NaHCO3 solution was added to stop the reaction. The absorbance at 405 nm was measured on a microplate reader, and the percent inhibition of DPP-4 was calculated at each concentration. The IC50 values for the four peptides were determined by fitting the dose–response curves with the log peptide concentration on the x-axis and the DI (%) on the y-axis. The DPP-IV-inhibition (DI) was calculated as follows:(8) DI%=(1−A405peptide−A405buffer/A405positive control−A405negtive control)×[…] where A405 (peptide) represents the optical density (at 405 nm) of the enzyme (DPP-IV) in the presence of the substrate (Gly-Pro-p-nitroanilide) and inhibitor (inhibitory peptide); A405 (buffer) represents the optical density of ddH2O; A405 (positive reaction) represents the optical density of the enzyme and the substrate in the absence of inhibitor; and A405 (negative reaction) represents the optical density of the enzyme in the absence of the substrate and inhibitor.
Origin 2024 was used to sort out the physical and chemical property data and create heatmaps to visualize the correlation between the peptide activity, the docking energy, and the physicochemical properties. GraphPad Prism 10 was used to perform non-linear regression of the DPP-4 percent inhibition versus the log[concentration]. The differences between the IC50 values of DPP-IV were subjected to the ordinary one-way ANOVA test. A p-value < 0.05 was considered significant. Other images were created by Python 3.13.2 and Adobe Illustrator 2022. We evaluated Section 2 of the article using the TRIPOD (Transparent Reporting of a multivariable prediction model for Individual Prognosis Or Diagnosis) framework from the EQUATOR Network.

[2] = target: T1, DPP-4; design: method as in PMID 29963014, PMID 6427168; settings: known DPP-4 inhibitory peptide, positive control; ref [41],[42]; cited from earlier work

T1 sequence (P27487 whole entry): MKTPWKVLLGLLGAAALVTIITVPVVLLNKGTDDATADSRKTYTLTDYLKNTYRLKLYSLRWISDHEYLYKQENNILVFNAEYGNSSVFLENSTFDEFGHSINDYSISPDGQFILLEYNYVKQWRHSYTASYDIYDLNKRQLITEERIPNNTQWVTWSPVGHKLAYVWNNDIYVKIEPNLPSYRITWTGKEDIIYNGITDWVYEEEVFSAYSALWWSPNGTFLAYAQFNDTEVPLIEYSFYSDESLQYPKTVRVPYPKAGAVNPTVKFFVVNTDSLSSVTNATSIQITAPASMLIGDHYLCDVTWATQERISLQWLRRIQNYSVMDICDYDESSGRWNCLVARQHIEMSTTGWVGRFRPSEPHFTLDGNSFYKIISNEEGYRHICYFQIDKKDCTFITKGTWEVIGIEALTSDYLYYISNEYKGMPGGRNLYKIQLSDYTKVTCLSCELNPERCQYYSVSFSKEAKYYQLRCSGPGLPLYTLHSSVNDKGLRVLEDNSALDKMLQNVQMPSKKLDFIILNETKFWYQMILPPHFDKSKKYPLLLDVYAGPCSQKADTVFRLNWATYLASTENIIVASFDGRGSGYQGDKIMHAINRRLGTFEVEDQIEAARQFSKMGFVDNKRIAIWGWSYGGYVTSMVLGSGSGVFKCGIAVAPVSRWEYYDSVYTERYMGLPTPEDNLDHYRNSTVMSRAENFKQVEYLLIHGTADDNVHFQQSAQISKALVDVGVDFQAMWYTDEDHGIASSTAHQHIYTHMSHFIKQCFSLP

IC50 ([1]; read-out: IC50) | Substance | also measured
 | CPPPPAAY [rice-derived proline-rich peptide, synthesized, purity of 95%] | IC50 [1]: could not be determined; DPP-4 inhibition (DI%), result in words ([1]; within the tested concentration range, pH 8.0, n = 3): showed no inhibitory effect
177 ± 6 µM | PPPPPPPPA [PPPPPPPPA] | 
216 ± 4.5 µM | PPPSPPPV [PPPSPPPV] | 
153 ± 5.7 µM | PPPPPY [PPPPPY] | 
 | Diprotin A [IPI] | IC50 [2]: ~3.5 µM
